Experimental data published in article PMC11288129, “Diversely evolved xibalbin variants from remipede venom inhibit potassium channels and activate PKA-II and Erk1/2 signaling” (BMC Biology, 2024).
Positions of bridges follow the written chain, without caps; N, C: chain ends. No end group written: not given here.

System: THP-1 cell adhesion to HMECs
Test: Adhesion of THP-1 leukocytes onto TNF-activated endothelial cells
Assay type: cell-based, human
Details: 25 µg/ml
Description: Nitric oxide has a complex and diverse role in pain modulation. […] Finally, we analyzed the effects of xibalbins on the leukocyte adhesion to the vascular endothelium, which is a critical step in the inflammatory response of inflamed tissues. Xibalbins were analyzed for their ability to alter the adhesion of human monocytic (THP-1) cells onto a TNF-activated endothelial cell monolayer (Additional File 5: Figure S4). […] All individual values for these experiments are given in Additional File 8: Table S3.
Supplementary file 12915_2024_1955_MOESM5_ESM.jpg: Additional file 5: Figure S4. Effects of xibalbins on cytotoxicity in RAW264.7 macrophages and adhesion of leukocytes onto the vascular endothelium. (i) For the viability assay, RAW264.7 cells were treated with 25 μg/ml concentrations of xibalbins for 24 h. Cells were incubated with WST-8 and the formed formazan was detected by absorbance measurements. (ii) For the proliferation assay, HMEC-1 cells were grown in low density and treated after 24 h with the indicated peptide for 72 h. Cells were stained with crystal violet solution. The amount of DNA-bound crystal violet was detected by absorbance measurements. […] The adhesion of leukocytes onto endothelial cells was quantified by fluorescence measurements using a Tecan Infinite F200 Pro microplate reader (Tecan, Männedorf, Switzerland) (excitation: 485 nm, emission: 535 nm). […]

KRSCIRRFGRCDHRPNDCCYNSSCRCNLWGSNCRCQRMGLFQKWGK (disulfide 4-19, 11-24, 18-35, 26-33) [xib13]
Prevention of Leukocyte Adh. on HMEC-1: 106.6
